US9079913B2, “Spiro-oxindole MDM2 antagonists” (The Regents of the University of Michigan, priority 2009, dated 2015)
Like-named read-outs stand apart in the source and are kept apart here.

Columns and labels:
[1] = test system: cancer cell lines with wild-type p53 / mutated or deleted p53 (ATCC); test: Cell growth assay (WST-8), other cancer cell lines; assay type: cell-based
[2] = target: recombinant human His-tagged MDM2 protein (residues 1-118) (Homo sapiens (Human), UniProt Q00987); test: Fluorescence-polarization MDM2 binding assay;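 also: fluorescence polarization read after three hours of incubation in potassium phosphate buffer containing bovine gamma globulin and Triton X-100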
[3] = test system: Isogenic HCT-116 colon cancer cell lines; test: cells; assay type: cell-based;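 also: cells grown in 96-well plates in McCoy's 5A medium with 10% FBS, exposed to compound for 4 days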
Procedure: Cells were seeded in 96-well flat bottom cell culture plates at a density of 2−3×10^3 cells/well with compounds and incubated for 4 days.

[4] = Homo sapiens, LNCaP, Table 19C, LNCaP cells, read-out: Cell growth inhibition using WST assay, LNCaP IC50
[5] = Homo sapiens, PC-3, Table 19C, PC3 cells, read-out: Cell growth inhibition using WST assay, PC3 IC50
[6] = Table 19C, read-out: Bidning affinities to MDM2 as determined using FP assay IC50
[7] = Homo sapiens, HCT-116, read-out: Cell growth inhibition using WST assay, HCT116 p53KO IC50, Table 19C, HCT116 p53KO
[8] = Homo sapiens, HCT-116, read-out: Cell growth inhibition using WST assay, HCT116 p53WT IC50, Table 19C, HCT116 p53WT
[9] = Homo sapiens, LNCaP, Table 19A, LNCAP cells, p53 wild-type, cell growth, read-out: LNCAP (p53 wild-type) IC50
[10] = Homo sapiens, PC-3, Table 19A, PC-3 cells, deleted p53, cell growth, read-out: PC-3 (deleted p53) IC50
[11] = Homo sapiens, SJSA-1, Table 19A, SJSA-1 cells, p53 wild-type, cell growth, read-out: SJSA-1 (p53 wild-type) IC50
[12] = Table 19A, FP binding assay, read-out: MDM2 IC50
[13] = Homo sapiens, HCT-116, read-out: HCT-116 (p53-/-) IC50, Table 19A, HCT-116 p53-/-, cell growth
[14] = Homo sapiens, HCT-116, read-out: HCT-116 (p53 wild-type) IC50, Table 19A, HCT-116 p53 wild-type, cell growth
[15] = Table 19B, LNCaP cells, read-out: Inhibition of cell growth IC50, LNCaP
[16] = Table 19B, PC3 cells, read-out: Inhibition of cell growth IC50, PC3
[17] = Table 19B, read-out: Binding affinities to MDM2 protein as determined by FP based assay IC50
[18] = read-out: Inhibition of cell growth IC50, HCT116 p53 KO, Table 19B, HCT116 p53 KO
[19] = read-out: Inhibition of cell growth IC50, HCT116 p53 WT, Table 19B, HCT116 p53 WT
[20] = Homo sapiens, LNCaP, Table 19D, LNCaP cells, read-out: LNCaP IC50
[21] = Homo sapiens, PC-3, Table 19D, PC3 cells, read-out: PC3 IC50
[22] = Table 19D, read-out: MDM2 Binding Affinities IC50
[23] = Homo sapiens, HCT-116, read-out: HCT116p53KO IC50, Table 19D, HCT116 p53KO
[24] = Homo sapiens, HCT-116, read-out: HCT116p53WT IC50, Table 19D, HCT116 p53WT
[25] = Homo sapiens, LNCaP, Table 19B, LNCaP cells, read-out: Inhibition of cell growth IC50, LNCaP
[26] = Homo sapiens, PC-3, Table 19B, PC3 cells, read-out: Inhibition of cell growth IC50, PC3
[27] = Homo sapiens, HCT-116, read-out: Inhibition of cell growth IC50, HCT116 p53 KO, Table 19B, HCT116 p53 KO
[28] = Homo sapiens, HCT-116, read-out: Inhibition of cell growth IC50, HCT116 p53 WT, Table 19B, HCT116 p53 WT

Sequence of recombinant human His-tagged MDM2 protein (residues 1-118) (Q00987 1-118): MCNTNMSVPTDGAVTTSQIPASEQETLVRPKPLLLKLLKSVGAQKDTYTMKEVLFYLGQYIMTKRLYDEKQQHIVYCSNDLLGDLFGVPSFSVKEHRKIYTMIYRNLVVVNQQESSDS

For O=C(NCC[C@H](O)CO)[C@H]1[C@H](c2cccc(Cl)c2)[C@@]2(C(=O)Nc3cc(Cl)c(F)cc32)[C@H]2CC3(CCCC3)CCN12 [MI-319-38], the IC50 [1, 4] was greater than 5 µM, the IC50 [1, 5] was greater than 10 µM and the IC50 [2, 6] was greater than 3 µM. For the same compound, the IC50 [3, 7] was greater than 10 µM and the IC50 [3, 8] was greater than 10 µM.
O=C(NC1CCC(O)CC1)[C@@H]1N[C@H](C=C2CCCC2)[C@]2(C(=O)Nc3cc(Cl)ccc32)[C@H]1c1cccc(Cl)c1F (stereo partly drawn) [MI-792] showed an IC50 [1, 9] of less than 10 µM, an IC50 [1, 10] greater than 20 µM and an IC50 [1, 11] of less than 10 µM. It also gave an IC50 [2, 12] of less than 5 µM, an IC50 [3, 13] greater than 20 µM and an IC50 [3, 14] of less than 10 µM.
With O=C(NCC[C@H](O)CO)[C@@H]1N[C@H](CC2CCCCC2)[C@]2(C(=O)Nc3cc(Cl)c(F)cc32)[C@H]1c1cccc(Cl)c1 [MI-716C] the IC50 [1, 15] was 0.8 ± 0.1 µM, the IC50 [1, 16] was 8 ± 2 µM and the IC50 [2, 17] was less than 1 µM. For the same compound, the IC50 [3, 18] was 12 ± 3.4 µM and the IC50 [3, 19] was 0.7 ± 0.2 µM.
Work on CC(C)(C)C[C@H]1N[C@@H](C(=O)NCC[C@H](O)CO)[C@H](c2cccc(Cl)c2)[C@@]12C(=O)Nc1cc(F)c(F)cc12 [MI-519-9] yielded an IC50 [1, 20] of less than 3 µM, an IC50 [1, 21] greater than 10 µM and an IC50 [2, 22] of less than 3 µM. It also gave an IC50 [3, 23] greater than 10 µM and an IC50 [3, 24] of less than 3 µM.
CC(C)(C)C[C@H]1N[C@@H](CO)[C@H](c2cccc(Cl)c2)[C@@]12C(=O)Nc1cc(Cl)c(F)cc12 [MI-519-20] was tested, and the IC50 [1, 20] was 2.2 ± 0.2 µM, the IC50 [1, 21] was 9 ± 1.1 µM and the IC50 [2, 22] was less than 5 µM. It also gave an IC50 [3, 23] of 13.4 ± 0.8 µM and an IC50 [3, 24] of 1.9 ± 0.1 µM.
CC(C)(C)C[C@H]1N[C@@H](C(=O)NCC[C@H]2CC[C@@H](O)C2)[C@H](c2cccc(Cl)c2F)[C@@]12C(=O)Nc1cc(Cl)ccc12 [MI-754] gave an IC50 [1, 15] of less than 3 µM, an IC50 [1, 16] greater than 5 µM and an IC50 [2, 17] of less than 1 µM. It also gave an IC50 [3, 18] greater than 5 µM and an IC50 [3, 19] of less than 3 µM.
With O=C(NCC[C@H](O)CO)[C@@H]1N[C@H](CC2CCCCC2)[C@]2(C(=O)Nc3cc(Cl)c(F)cc32)[C@H]1c1cccc(Cl)c1 [MI-716A] the IC50 [1, 25] was 1.1 ± 0.5 µM, the IC50 [1, 26] was 11.5 ± 0.5 µM and the IC50 [2, 17] was less than 3 µM. For the same compound, the IC50 [3, 27] was greater than 10 µM and the IC50 [3, 28] was 1 ± 0.5 µM.
Compound CN1[C@@H](C(=O)NCC[C@H](O)CO)[C@H](c2cccc(Cl)c2)[C@@]2(C(=O)Nc3cc(Cl)c(F)cc32)[C@H]1CC(C)(C)C [MI-717] has an IC50 [1, 15] of 2.7 ± 0.6 µM, an IC50 [1, 16] of 31.5 ± 1.4 µM and an IC50 [2, 17] greater than 3 µM. The IC50 [3, 18] was 47.8 ± 1.4 µM and the IC50 [3, 19] was 2.2 ± 0.1 µM.
CCCCC(C)(C)C[C@H]1N[C@@H](C(=O)NCC[C@H](O)CO)[C@H](c2cccc(Cl)c2)[C@@]12C(=O)Nc1cc(Cl)c(F)cc12 [MI-724] showed an IC50 [1, 25] of 1.2 ± 0.4 µM, an IC50 [1, 26] of 3.9 ± 0.2 µM and an IC50 [2, 17] of less than 1 µM. It also gave an IC50 [3, 27] of 5.3 ± 0.3 µM and an IC50 [3, 28] of 1.1 ± 0.5 µM.
CC(C)(C)C[C@H]1N[C@@H](C(=O)NCCN2CCN(C(=O)CO)CC2)[C@H](c2cccc(Cl)c2)[C@@]12C(=O)Nc1cc(Cl)c(F)cc12 [MI-319-33] gave an IC50 [1, 4] of 1.4 ± 0.2 µM, an IC50 [1, 5] of 23.6 ± 5.5 µM and an IC50 [2, 6] of less than 1 µM. For the same compound, the IC50 [3, 7] was 25.3 ± 2.8 µM and the IC50 [3, 8] was 2.1 ± 0.2 µM.
Work on CC(C)(C)C[C@H]1N[C@@H](C(=O)NCCC(=O)CO)[C@H](c2cccc(Cl)c2)[C@@]12C(=O)Nc1cc(Cl)c(F)cc12 [MI-219-M1 (b)] yielded an IC50 [1, 9] of less than 3 µM, an IC50 [1, 10] greater than 10 µM and an IC50 [2, 12] of less than 1 µM. It also gave an IC50 [3, 13] greater than 10 µM and an IC50 [3, 14] of less than 3 µM.
CCOP(=O)(OCC)OC[C@@H](O)CCNC(=O)[C@@H]1N[C@H](CC(C)(C)C)[C@]2(C(=O)Nc3cc(Cl)c(F)cc32)[C@H]1c1ccc(F)c(Cl)c1 [MI-319-27] showed an IC50 ([1]; Homo sapiens, LNCaP, read-out: Cell growth inhibition using WST assay, LNCaP IC50) of less than 5 µM, an IC50 ([1]; Homo sapiens, PC-3, read-out: Cell growth inhibition using WST assay, PC3 IC50) greater than 10 µM and an IC50 [2, 6] of less than 5 µM. For the same compound, the IC50 [3, 7] was greater than 10 µM and the IC50 [3, 8] was less than 5 µM.
Work on O=C(NC1CCC(O)CC1)[C@@H]1N[C@H](CC2CCCC2)[C@]2(C(=O)Nc3cc(Cl)ccc32)[C@H]1c1cccc(Cl)c1F (stereo partly drawn) [MI-791] yielded an IC50 [1, 9] of less than 3 µM, an IC50 [1, 10] greater than 10 µM and an IC50 [1, 11] of less than 3 µM. For the same compound, the IC50 [2, 12] was less than 3 µM, the IC50 [3, 13] was greater than 10 µM and the IC50 [3, 14] was less than 3 µM.
CCN(CC)C(=O)N1CC(NC(=O)[C@@H]2N[C@H](CC(C)(C)C)[C@]3(C(=O)Nc4cc(Cl)ccc43)[C@H]2c2cccc(Cl)c2F)C1 [MI-917] was tested, and the IC50 [1, 9] was less than 3 µM, the IC50 [1, 10] was greater than 5 µM and the IC50 [2, 12] was less than 1 µM. The IC50 [3, 13] was greater than 10 µM and the IC50 [3, 14] was less than 3 µM.
